Measured values: the supplement of paper PMC10307832

What was measured:
Assay in all cases: relative viability (nuclei count vs DMSO), 5 days (fraction); higher = more cells survive
[1] = tested on: NCI-H1395
How it was run: (§1)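 Lung cancer cell lines were seeded in 1536-well plates and dosed by pin tool the next day, with either a single drug or a fixed anchor-drug dose combined with five library-drug doses (not always all listed) spaced in √10 steps. Five days later, one step fixed the cells and stained their nuclei (final 0.05% Triton X-100, 1% formaldehyde, 1 ug/ml Hoechst), and nuclei were counted on 4× images. Relative viability is the nuclei count in treated wells divided by the count in vehicle wells, and each value is the median of duplicate plates.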

[2] = tested on: NCI-H2009
How it was run: as §1

[3] = tested on: NCI-H2228
How it was run: as §1

[4] = tested on: EPLC-272H
How it was run: as §1

[5] = tested on: NCI-H661
How it was run: as §1

[6] = tested on: NCI-H23
How it was run: as §1

[7] = tested on: BEN
How it was run: as §1

[8] = tested on: NCI-H322M
How it was run: as §1

[9] = tested on: NCI-H650
How it was run: as §1

[10] = tested on: HCC-78
How it was run: as §1

[11] = tested on: NCI-H2342
How it was run: as §1

[12] = tested on: HCC-15
How it was run: as §1

[13] = tested on: NCI-H460
How it was run: as §1

[14] = tested on: NCI-H2126
How it was run: as §1

[15] = tested on: PC-14
How it was run: as §1

[16] = tested on: LCLC-97TM1
How it was run: as §1

[17] = tested on: NCI-H2405
How it was run: as §1

[18] = tested on: NCI-H838
How it was run: as §1

[19] = tested on: LU99A
How it was run: as §1

[20] = tested on: NCI-H2085
How it was run: as §1

[21] = tested on: 201T
How it was run: as §1

[22] = tested on: NCI-H1355
How it was run: as §1

[23] = tested on: NCI-H647
How it was run: as §1

## CN1CCN(CCOc2cc(OC3CCOCC3)c3c(Nc4c(Cl)ccc5c4OCO5)ncnc3c2)CC1 [Saracatinib] + Nc1nc2[nH]cc(CCc3ccc(C(=O)N[C@@H](CCC(=O)O)C(=O)O)cc3)c2c(=O)[nH]1 [Pemetrexed] (partner 0.2 µM)
[1]; first compound 0.02 µM
  relative viability: 0.896
[1]; first compound 0.2 µM
  relative viability: 0.769
[1]; first compound 0.6325 µM
  relative viability: 0.846
[1]; first compound 2 µM
  relative viability: 0.612
[2]; first compound 0.02 µM
  relative viability: 1.01
[2]; first compound 0.2 µM
  relative viability: 0.962
[2]; first compound 0.6325 µM
  relative viability: 0.993
[2]; first compound 2 µM
  relative viability: 1.05
[3]; first compound 0.02 µM
  relative viability: 0.355
[3]; first compound 0.2 µM
  relative viability: 0.342
[3]; first compound 0.6325 µM
  relative viability: 0.332
[3]; first compound 2 µM
  relative viability: 0.266
[4]; first compound 0.02 µM
  relative viability: 0.334
[4]; first compound 0.2 µM
  relative viability: 0.313
[4]; first compound 0.6325 µM
  relative viability: 0.239
[4]; first compound 2 µM
  relative viability: 0.251
[5]; first compound 0.02 µM
  relative viability: 0.942
[5]; first compound 0.2 µM
  relative viability: 0.84
[5]; first compound 0.6325 µM
  relative viability: 0.846
[5]; first compound 2 µM
  relative viability: 0.699
[6]; first compound 0.02 µM
  relative viability: 0.683
[6]; first compound 0.6325 µM
  relative viability: 0.613
[6]; first compound 2 µM
  relative viability: 0.519
[7]; first compound 0.02 µM
  relative viability: 0.916
[7]; first compound 0.2 µM
  relative viability: 0.824
[7]; first compound 0.6325 µM
  relative viability: 0.727
[7]; first compound 2 µM
  relative viability: 0.667
[8]; first compound 0.02 µM
  relative viability: 0.574
[8]; first compound 0.2 µM
  relative viability: 0.55
[8]; first compound 0.6325 µM
  relative viability: 0.505
[8]; first compound 2 µM
  relative viability: 0.32
[9]; first compound 0.02 µM
  relative viability: 0.962
[9]; first compound 0.2 µM
  relative viability: 0.903
[9]; first compound 0.6325 µM
  relative viability: 0.884
[9]; first compound 2 µM
  relative viability: 0.874
[10]; first compound 0.02 µM
  relative viability: 0.916
[10]; first compound 0.6325 µM
  relative viability: 0.925
[10]; first compound 2 µM
  relative viability: 0.841
[11]; first compound 0.02 µM
  relative viability: 0.83
[11]; first compound 0.2 µM
  relative viability: 0.673
[11]; first compound 0.6325 µM
  relative viability: 0.789
[11]; first compound 2 µM
  relative viability: 0.84
[12]; first compound 0.02 µM
  relative viability: 0.213
[12]; first compound 0.2 µM
  relative viability: 0.225
[12]; first compound 0.6325 µM
  relative viability: 0.219
[12]; first compound 2 µM
  relative viability: 0.222
[13]; first compound 0.02 µM
  relative viability: 0.0672
[13]; first compound 0.2 µM
  relative viability: 0.0368
[13]; first compound 0.6325 µM
  relative viability: 0.0538
[13]; first compound 2 µM
  relative viability: 0.0548
[14]; first compound 0.02 µM
  relative viability: 0.772
[14]; first compound 0.2 µM
  relative viability: 0.664
[14]; first compound 0.6325 µM
  relative viability: 0.659
[14]; first compound 2 µM
  relative viability: 0.558
[15]; first compound 0.02 µM
  relative viability: 0.133
[15]; first compound 0.2 µM
  relative viability: 0.114
[15]; first compound 0.6325 µM
  relative viability: 0.118
[15]; first compound 2 µM
  relative viability: 0.111
[16]; first compound 0.02 µM
  relative viability: 0.18
[16]; first compound 0.2 µM
  relative viability: 0.134
[16]; first compound 0.6325 µM
  relative viability: 0.172
[16]; first compound 2 µM
  relative viability: 0.136
[17]; first compound 0.02 µM
  relative viability: 0.995
[17]; first compound 0.2 µM
  relative viability: 0.671
[17]; first compound 0.6325 µM
  relative viability: 0.843
[17]; first compound 2 µM
  relative viability: 0.488
[18]; first compound 0.02 µM
  relative viability: 0.254
[18]; first compound 0.2 µM
  relative viability: 0.204
[18]; first compound 0.6325 µM
  relative viability: 0.248
[18]; first compound 2 µM
  relative viability: 0.227
[19]; first compound 0.02 µM
  relative viability: 0.205
[19]; first compound 0.2 µM
  relative viability: 0.214
[19]; first compound 0.6325 µM
  relative viability: 0.173
[19]; first compound 2 µM
  relative viability: 0.165
[20]; first compound 0.02 µM
  relative viability: 0.929
[20]; first compound 0.2 µM
  relative viability: 0.838
[20]; first compound 0.6325 µM
  relative viability: 0.85
[20]; first compound 2 µM
  relative viability: 0.63
[21]; first compound 0.02 µM
  relative viability: 0.312
[21]; first compound 0.2 µM
  relative viability: 0.337
[21]; first compound 0.6325 µM
  relative viability: 0.341
[21]; first compound 2 µM
  relative viability: 0.336
[22]; first compound 0.02 µM
  relative viability: 1
[22]; first compound 0.2 µM
  relative viability: 1.02
[22]; first compound 0.6325 µM
  relative viability: 1
[22]; first compound 2 µM
  relative viability: 1.06
[23]; first compound 0.02 µM
  relative viability: 0.191
[23]; first compound 0.2 µM
  relative viability: 0.148
[23]; first compound 0.6325 µM
  relative viability: 0.159
[23]; first compound 2 µM
  relative viability: 0.138
